Experiments:
p-Her2 = assay: Immunoblotting of phosphorylated Her2 in SKBR3 cells; type: cell-based; conditions: FIG. 5
Text: The HDAC inhibition seen in many BC cell lines by CAPE and propolis results in the decrease of EGFR over-expression and induction of ER in MDA-231 cells and decrease in ER and PR expression in MCF-7 cells (FIG. 3, 4). CAPE and Propolis cause a decrease in p-Her2, the activated form of Her 2 in SKBR3 cells, likely through intracellular signaling mechanisms (FIG. 5). […] To establish that the epigenetic effects of CAPE can be recapitulated in the natural product, we determined the concentration of CAPE in propolis by HPLC. […] Furthermore, the enhanced effects of HDAC inhibition with propolis, compared to CAPE alone, make it a suitable candidate for a clinical trial in any area of oncology.

MDA-231 xenografts = MDA-231 xenografts in nude mice; type: in vivo
Experimental: (§1) Nude mice bearing MDA-231 xenografts were fed CAPE-containing diets and/or treated topically with CAPE, and tumors measured twice/week. bCSC (breast CSC) were isolated from MDA-231 cells and xenografts, and propagated as mammospheres. Cell growth was analyzed using MTT and cell cycle by flow cytometry. Apoptosis was determined by co-staining bCSC with Annexin V and propidium iodide.

[1] = test system: bCSC isolated from MDA-231 cells; assay: Breast cancer stem cell (bCSC) clonal growth and self-renewal, mammospheres and soft agar; type: cell-based, human
Experimental: as §1

[2] = test system: histone deacetylases (HDAC); assay: Western blotting of acetylated histone proteins in breast cancer cell lines; type: cell-based, human; conditions: MDA-231 and MCF-7 cells, FIG. 2
Text: (§2) These cell lines serve as in vitro breast cancer models. […] This typically signifies the inhibition of histone deacetylases and is used as a readout of this process via Western blotting. […] Further, FIGS. 3 and 4 provide additional evidence of the epigenetic changes that occur with CAPE and propolis resulting from HDAC inhibition. FIG. 3 depicts the downregulation of the estrogen receptor (ER) and progesterone receptor (PR) in MCF-7 cells and the downregulation of the epidermal growth factor receptor (EGFR) in MDA-231 cells (FIG. 4B). The re-expression of a previously silenced gene, (ER), a key function of HDAC inhibition, is depicted by the upregulation of the estrogen receptor in the ER-negative MDA-231 cell line (FIG. 4A). Furthermore, we have shown the HDAC inhibitor activity is not just restricted to breast cancer, but also in lymphoma (FIG. 9).

VEGF = conditions: MDA-231 cells; cited from earlier work
endothelial cells = conditions: cited from earlier work
[3] = test system: progesterone receptor (PR); assay: Immunoblotting of PR in MCF-7 cells; type: cell-based; conditions: FIG. 3
[4] = test system: normal human mammary epithelial cells; assay: Effect on normal mammary epithelial cells; type: cell-based
[5] = test system: histone deacetylases (HDAC); assay: Western blotting of acetylated histone H3 in lymphoma cell lines; type: cell-based; conditions: RIVA, LY 1, SU-DHL6 lymphoma cell lines, FIG. 9
Text: FIG. 9 illustrates by Western Blotting CAPE induced hyperacetylation of Histone Proteins (Ac H3) in the indicated lymphoma cell lines (RIVA, LY 1, SU-DHL6).
as §2

estrogen receptor (ER) [6] = assay: ER re-expression in MDA-231 cells by immunofluorescence and RT-PCR; type: cell-based; conditions: ER-negative MDA-231 cells, FIG. 4A
NF-κB = conditions: cited from earlier work
[7] = test system: MDA-MB-231 (MDA-231) cells; assay: Cell growth of MDA-231 cells (MTT); type: cell-based, human
Experimental: as §1

[8] = test system: epidermal growth factor receptor (EGFR); assay: Immunoblotting of EGFR in MDA-231 cells; type: cell-based; conditions: FIG. 4B
[9] = test system: multidrug resistance 1 (mdr-1) gene; assay: Gene expression microarray analysis; type: cell-based
estrogen receptor (ER) [10] = assay: Immunoblotting of ER in MCF-7 cells; type: cell-based; conditions: FIG. 3

Structure (SMILES) | p-Her2 expression (p-Her2) | Growth of MDA-231 xenografts (MDA-231 xenografts; dietary CAPE) | Tumor volume (MDA-231 xenografts; subsequent topical treatment after dietary CAPE) | bCSC clonal growth [1] | bCSC and progenitor self-renewal (growth in soft agar) ([1]; pretreatment with 20 μM) | HDAC inhibition (accumulation of acetylated histone proteins) [2] | VEGF secretion (VEGF) | Tubule formation (endothelial cells) | PR expression [3] | Effect on normal cells [4] | Acetylation of histone proteins (Ac H3) [5] | ER expression (re-expression of silenced gene) (estrogen receptor (ER) [6]) | NF-κB inhibition (NF-κB) | Growth of MDA-231 cells [7] | EGFR expression [8] | mdr-1 gene expression [9] | ER expression (estrogen receptor (ER) [10])
O=C(/C=C/c1ccc(O)c(O)c1)OCCc1ccccc1 [CAPE, caffeic acid phenethyl ester] | decrease | significantly inhibited | further decreased | decreased | decreased growth in soft agar | HDAC inhibitors | decreases | inhibits | downregulation | innocuous | hyperacetylation | upregulation | inhibits | inhibits growth | downregulation | down-regulates | downregulation
Cc1[nH]c2ccccc2c1CCNCc1ccc(/C=C/C(=O)NO)cc1 [LBH 589, reference compound] |  |  |  |  |  |  |  |  |  |  |  | re-expression |  |  |  |  | 

— US20140127316A1, “PROPOLIS AND CAFFEIC ACID PHENETHYL ESTER AND USES THEREOF” (NEW YORK UNIVERSITY, priority 2011, published 2014)
